# Patent publication US20080269174A1 (priority 2005, published 2008)
# Several values for one entry are separate records, joined by “and”; a condition that tells them apart may be missing. Identical values can stand only once. Like-named read-outs stand apart in the source and are kept apart here.
# Key:
# Experiment in all cases: microbe, parasite or virus in culture
# Format in all cases: cell-based
# [1] = system: Pyrenophora graminea; conditions: for % activity observed: 72 hrs
# [2] = system: Rhizoctonia solani; conditions: 72 h, read-out: % activity observed
# [3] = system: Ustilago nuda
# [4] = system: Fusarium graminearum; conditions: for % activity observed: 48 hrs
# [5] = system: Pythium ultimum
# [6] = system: Gaeumannomyces graminis; conditions: for % activity observed: 72 hrs
# [7] = system: Monographella nivalis; conditions: for % activity observed: 72 hrs
# [8] = Pyrenophora graminea, 72 h, read-out: % activity observed
# [9] = Ustilago nuda, 48 h, read-out: % activity observed
# [10] = Fusarium graminearum, 48 h, read-out: % activity observed, 10 ppm applied alone
# [11] = Globisporangium ultimum, 48 h, read-out: % activity observed
# [12] = Gaeumannomyces graminis, 72 h, read-out: % activity observed
# [13] = Monographella nivalis, 72 h, read-out: % activity observed
structure (smiles),measurement,setting,value
"CC1COC(Cn2cncn2)(c2ccc(Oc3ccc(Cl)cc3)cc2Cl)O1 (stereo not shown) [Difenconazole, Difenoconazole]",inhibition at 0.014 ppm,[1]; [8],20%
same,inhibition at 0.041 ppm,[1]; [8],29%
same,inhibition at 0.123 ppm,[1]; [8],41%
same,inhibition at 0.37 ppm,[1]; [8],70%
same,inhibition at 1.111 ppm,[1]; [8],86%
same,inhibition at 3.333 ppm,[1]; [8],87%
same,inhibition at 10 ppm,[1]; [8],86%
same,inhibition at 0.014 ppm,[2],5%
same,inhibition at 0.041 ppm,[2],0%
same,inhibition at 0.123 ppm,[2],27%
same,inhibition at 0.37 ppm,[2],30%
same,inhibition at 1.111 ppm,[2],84%
same,inhibition at 3.333 ppm,[2],88%
same,inhibition at 10 ppm,[2],84%
same,inhibition at 0.014 ppm,[3]; [9],4%
same,inhibition at 0.041 ppm,[3]; [9],0%
same,inhibition at 0.123 ppm,[3]; [9],0%
same,inhibition at 0.37 ppm,[3]; [9],0%
same,inhibition at 1.111 ppm,[3]; [9],0%
same,inhibition at 3.333 ppm,[3]; [9],0%
same,inhibition at 10 ppm,[3]; [9],60%
same,inhibition at 0.014 ppm,"[4]; Fusarium graminearum, 48 h, read-out: % activity observed, 0.014 ppm applied alone",8%
same,inhibition at 0.041 ppm,"[4]; Fusarium graminearum, 48 h, read-out: % activity observed, 0.041 ppm applied alone",6%
same,inhibition at 0.123 ppm,"[4]; Fusarium graminearum, 48 h, read-out: % activity observed, 0.123 ppm applied alone",14%
same,inhibition at 0.37037 ppm,"[4]; Fusarium graminearum, 48 h, read-out: % activity observed, 0.3703704 ppm applied alone",16%
same,inhibition at 1.11111 ppm,"[4]; Fusarium graminearum, 48 h, read-out: % activity observed, 1.1111111 ppm applied alone",34%
same,inhibition at 3.33333 ppm,"[4]; Fusarium graminearum, 48 h, read-out: % activity observed, 3.3333333 ppm applied alone",73%
same,inhibition at 10 ppm,[4]; [10],92%
same,inhibition at 0.014 ppm,[5]; [11],5%
same,inhibition at 0.041 ppm,[5]; [11],0%
same,inhibition at 0.123 ppm,[5]; [11],0%
same,inhibition at 0.37 ppm,[5]; [11],0%
same,inhibition at 1.111 ppm,[5]; [11],0%
same,inhibition at 3.333 ppm,[5]; [11],0%
same,inhibition at 10 ppm,[5]; [11],7%
COCC(=O)N(c1c(C)cccc1C)[C@H](C)C(=O)OC [Mefenoxam],% activity observed,[1],0% and 5%
same,% activity observed,[3]; 48 hrs,0% and 2% and 5% and 8%
same,% activity observed,[6],0% and 4% and 3%
same,% activity observed,[7],0%
same,% activity observed,[4]; 0.014 ppm applied alone,6%
same,% activity observed,[4]; 0.041 ppm applied alone,0%
same,% activity observed,[4]; 0.123 ppm applied alone,0%
same,% activity observed,[4]; 0.370 ppm applied alone,0%
same,% activity observed,[4]; 1.111 ppm applied alone,0%
same,% activity observed,[4]; 3.333 ppm applied alone,2%
same,% activity observed,[4]; 10.000 ppm applied alone,1%
CC(C)(C)C(O)(CCc1ccc(Cl)cc1)Cn1cncn1 (stereo not shown) [Tebuconazole],% activity observed,[1],54% and 89% and 74%
same,inhibition at 0.041 ppm,[1]; [8],17%
same,inhibition at 0.123 ppm,[1]; [8],48%
same,inhibition at 0.37 ppm,[1]; [8],57%
same,inhibition at 1.111 ppm,[1]; [8],77%
same,inhibition at 3.333 ppm,[1]; [8],87%
same,inhibition at 10 ppm,[1]; [8],94%
same,inhibition at 3.333 ppm,[2],96%
same,inhibition at 10 ppm,[2],100%
same,inhibition at 0.014 ppm,[3]; [9],0%
same,inhibition at 0.041 ppm,[3]; [9],0%
same,inhibition at 10 ppm,[3]; [9],26%
same,% activity observed,[6],100%
same,inhibition at 0.041 ppm,[6]; [12],16%
same,inhibition at 0.123 ppm,[6]; [12],64%
same,inhibition at 0.37 ppm,[6]; [12],97%
same,inhibition at 1.111 ppm,[6]; [12],98%
same,inhibition at 3.333 ppm,[6]; [12],98%
same,inhibition at 10 ppm,[6]; [12],96%
same,% activity observed,[7],6%
same,inhibition at 0.014 ppm,[7]; [13],9%
same,inhibition at 0.041 ppm,[7]; [13],3%
same,inhibition at 1.111 ppm,[7]; [13],0%
same,inhibition at 3.333 ppm,[7]; [13],62%
same,inhibition at 10 ppm,[7]; [13],94%
same,% activity observed,[4]; 0.014 ppm applied alone,3% and 1%
same,% activity observed,[4]; 0.041 ppm applied alone,11% and 5% and 9%
same,% activity observed,[4]; 0.370 ppm applied alone,34% and 39%
same,% activity observed,[4]; 1.111 ppm applied alone,62% and 55%
same,% activity observed,[4]; 3.333 ppm applied alone,88%
same,% activity observed,[4]; 10.000 ppm applied alone,95% and 97%
same,inhibition at 0.0137 ppm,"[4]; Fusarium graminearum, 48 h, read-out: % activity observed, 0.0137 ppm applied alone",0%
same,inhibition at 0.0412 ppm,"[4]; Fusarium graminearum, 48 h, read-out: % activity observed, 0.0412 ppm applied alone",7%
same,inhibition at 0.1235 ppm,"[4]; Fusarium graminearum, 48 h, read-out: % activity observed, 0.1235 ppm applied alone",16%
same,inhibition at 0.37 ppm,"[4]; Fusarium graminearum, 48 h, read-out: % activity observed, 0.370 ppm applied alone",37%
same,inhibition at 0.3704 ppm,"[4]; Fusarium graminearum, 48 h, read-out: % activity observed, 0.3704 ppm applied alone",33%
same,inhibition at 1.111 ppm,"[4]; Fusarium graminearum, 48 h, read-out: % activity observed, 1.111 ppm applied alone",50%
same,inhibition at 1.1111 ppm,"[4]; Fusarium graminearum, 48 h, read-out: % activity observed, 1.1111 ppm applied alone",66%
same,inhibition at 3.333 ppm,"[4]; Fusarium graminearum, 48 h, read-out: % activity observed, 3.333 ppm applied alone",98%
same,inhibition at 3.3333 ppm,"[4]; Fusarium graminearum, 48 h, read-out: % activity observed, 3.3333 ppm applied alone",94%
same,inhibition at 10 ppm,[4]; [10],94%
same,inhibition at 10 ppm,"[4]; Fusarium graminearum, 48 h, read-out: % activity observed, 10.000 ppm applied alone",100%
same,% activity observed,[5]; 48 hrs,2% and 4% and 0%
same,inhibition at 0.123 ppm,[5]; [11],1%
same,inhibition at 10 ppm,[5]; [11],22%
